Assay results published in US20050002904A1, “Uses of vascular endothelial growth factor and type I collagen inducible protein (VCIP)” (priority 2003, published 2005).
Marks after values point to notes of the source that are not given here. Where no end group is shown, it is not given here.

Columns and labels:
endothelial cells = assay: Adhesion blocking assay on GST-VCIP-RGD-coated dishes; type: cell-based, human
PAP2b = target: T1, PAP2b (Homo sapiens, UniProt O14495); conditions: membrane fraction of 293T cells over-expressing PAP2b; cited from earlier work
T1 construct: expressed in transfected cells; host or cells: 293T cells (membrane fraction)
T1 sequence (O14495 1-311): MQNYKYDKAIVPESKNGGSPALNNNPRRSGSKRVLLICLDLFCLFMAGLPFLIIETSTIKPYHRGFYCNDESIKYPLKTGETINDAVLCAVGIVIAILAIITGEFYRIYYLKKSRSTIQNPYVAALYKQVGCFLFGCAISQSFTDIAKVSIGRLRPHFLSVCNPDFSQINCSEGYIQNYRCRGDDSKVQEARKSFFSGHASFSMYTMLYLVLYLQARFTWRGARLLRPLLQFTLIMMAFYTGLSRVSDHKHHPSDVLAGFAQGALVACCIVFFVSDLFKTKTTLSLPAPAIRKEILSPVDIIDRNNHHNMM

VCIP = VCIP mRNA induction by growth factors and cytokines in monolayer cells; type: cell-based, human
Protocol: FIGS. 1A-M show expression analysis and predicted amino acid sequence of VEGF and type I collagen inducible protein (VCIP). FIG. 1A: HUVECs were embedded into three-dimensional type I collagen gel in the presence of 20% adult human serum, 1× ITS and stimulated with VEGF^165 (100 ng/ml). Total RNA was prepared at the indicated time points. Northern blots were hybridized with a fragment of the VCIP (clone-33A) cDNA probe. The transcript size (3.4 kb) is indicated on the right. The numbers at the bottom of the gel represent the fold increase in VCIP mRNA levels, as compared with untreated cells. […] Total RNA was isolated at indicated time points and subjected to VCIP northern blot analysis. […] FIG. 1E: Poly(A)^+ RNA prepared from various human tissues was subjected to VCIP northern blot analysis by hybridization with the clone-33A cDNA probe. FIG. 1F: The blot shown in FIG. 1E was re-hybridized with a GAPDH probe, showing that equal amounts of RNA were loaded across the lanes. FIG. 1G: Detection of VCIP mRNA by RT-PCR (20 cycles): monolayer endothelial cells were treated for 30 min with: (1) untreated, (2) bFGF (20 ng/ml), (3) VEGF^165 (100 ng/ml), (4) PMA (20 ng/ml), (5) bFGF (20 ng/ml)+VEGF (100 ng/ml), (6) bFGF (20 ng/ml)+PMA (20 ng/ml), (7) VEGF (100 ng/ml)+PMA (20 ng/ml) and (8) bFGF (20 ng/ml)+VEGF (100 ng/ml)+PMA (20 ng/ml). FIGS. 1H-J: RT-PCR analysis of uPAR mRNA (FIG. 1H), β-actin mRNA (FIG. 11) and GAPDH mRNA levels (FIG. 1J) were carried out under the same conditions as described in FIG. 1G. All experiments were repeated at least three times, with similar results. FIG. 1K: Inserts from six recombinant_phage clones are shown, and the relative position of clone 33A is indicated. FIG. 1L: The complete predicted amino acid sequence of VCIP. The putative transmembrane segments are underlined. The N-linked glycosylation site is indicated by an asterisk. The lipid phosphatase catalytic domain is indicated by bold letters and underlined, and the RGD motif is boxed. FIG. 1M: The amino acid sequence of human VCIP (top) is aligned with other proteins containing lipid phosphatase-like catalytic motifs.
FIGS. 3A-F show VCIP induction by growth factors and cytokines. Indicated monolayer cells were stimulated with various growth factors and cytokines for 6 h in media M199 containing 10% serum+1× ITS. The concentrations of cytokines used were optimized according to their ability to induce Erk2 phosphorylation in western blot analysis: VEGF^165 (100 ng/ml), EGF (20 ng/ml), bFGF (30 ng/ml), TNF-α (15 ng/ml), PMA (10 ng/ml) and IL-1β (25 ng/ml). Total RNA (20 μg per lane) was subjected to northern blot analysis by hybridization with the indicated probes. The uPAR northern blot was included as a control for the cytokines used. Ethidium bromide-stained gels show equal amounts of RNA used (FIGS. 3C and F). Data shown are representative of those obtained in two or three separate experiments.
VCIP mRNA was most strongly expressed in human heart and placenta, tissues that are highly vascularized (FIG. 1E). Next, expression of VCIP in monolayer endothelial cells treated with bFGF, VEGF and PMA was examined (FIG. 1G). […] This pattern of regulation was identical to that of the human receptor for urokinase plasminogen activator (uPAR) expression (FIG. 1H). β-actin and GAPDH were included as controls and were not regulated under any of these conditions (FIGS. 1I and J).
To examine VCIP expression by other cell types, endothelial, smooth muscle and epithelial cells (A431) were stimulated in monolayer with various growth factors and cytokines for 6 h. Total RNA was then isolated and subjected to northern blot analysis for VCIP and uPAR (FIG. 3).

[1] = tested on: HEK cells stably expressing pLNCX2-VCIP-RGD (WT); assay: Cell aggregation of HEK cells stably expressing VCIP constructs (Table 1); type: cell-based; conditions: for size, speed of formation and number of cell aggregates: continuous presence, antibody 25-50 μl/ml, peptides 10-50 nM; for % cell aggregates: WT cells, 48 h, mean ± SD
Protocol: WT cells were also incubated with several peptides modeled after the VCIP-RGD region. When WT cells were cultured in the continuous presence of an anti-VCIP-RGD antibody (25-50 μl/ml) and NYRCRGDDSK (SEQ ID NO:20) (10-50 nM), the size, the speed of formation and the number of such cell aggregates were reduced (Table 1).

[2] = A431 epidermoid carcinoma cells, 6 h, northern blot
[3] = monolayer endothelial cells, RT-PCR, 30 min

Compound: O=C(O)CN(CCN(CC(=O)O)CC(=O)O)CC(=O)O [EDTA, reference compound]
- detachment of endothelial cells adhered to VCIP (endothelial cells; 2.5 mM (pH 7.4) for 5 min): caused the cells to detach from tissue culture dishes

Compound: CCN1C(=O)C=CC1=O [N-ethylmaleimide]
- effect on phosphatase activity against phosphatidic acid (PAP2b): insensitive

Compound: CCCCCCCCCCCCCC(=O)O[C@@H]1[C@@H](C)[C@@]2(O)[C@@H](C=C(CO)C[C@]3(O)C(=O)C(C)=C[C@@H]23)[C@@H]2C(C)(C)[C@]12OC(C)=O [PMA]
- induction of VCIP expression (VCIP; [2]): strongly induced
- induction of VCIP expression (VCIP; AoSMC, 6 h, northern blot): did not
- induction of VCIP expression (VCIP; CASMCs, 6 h, northern blot): Neither PMA nor VEGF^165 induced expression of VCIP
- induction of VCIP expression (VCIP; [3]): equally able to induce expression of VCIP

Compound: CC(C)NCC(O)COc1cccc2ccccc12 (stereo not shown) [propranolol]
- effect on phosphatase activity against phosphatidic acid (PAP2b): blocked

Compound: CCCCCCCCCCCCC/C=C/[C@@H](O)[C@@H](N)CO [sphingosine]
- effect on phosphatase activity against phosphatidic acid (PAP2b): blocked

Compound: NYRCRADDSK (CHAIN a peptide containing a mutated RGD sequence)
- size, speed of formation and number of cell aggregates [1]: no reduction in cell aggregation
- % cell aggregates ([1]; substance 10 nM): 92 ± 5.7%
- % cell aggregates ([1]; substance 30 nM): 89 ± 7.5%
- % cell aggregates ([1]; substance 50 nM): 90 ± 7.2^a %

Compound: NYRCRGDDSK (CHAIN a peptide containing RGD sequence)
- size, speed of formation and number of cell aggregates [1]: reduced
- % cell aggregates ([1]; substance 10 nM): 67 ± 15.7%
- % cell aggregates ([1]; substance 30 nM): 46 ± 13.3%
- % cell aggregates ([1]; substance 50 nM): 28 ± 10.5^a %

Compound: NYRCRGDDSKVQE (also: acetylated) [acetylated NYRCRGDDSKVQE (VCIP-RGD)]
- detachment of attached cells from VCIP-RGD-coated wells (endothelial cells; 5 nM): eventually completely detached from the wells
- time until attached cells rounded up (endothelial cells; 5 nM, cells plated on VCIP-RGD-coated wells): ≤ 5 min

Compound: NYRCRGEDSK (CHAIN a peptide containing a mutated RGD sequence)
- size, speed of formation and number of cell aggregates [1]: no reduction in cell aggregation

Compound: TNF-α
- induction of VCIP expression (VCIP; [2]): had no effect

Compound: bFGF: Basic Fibroblast growth factor
- induction of VCIP expression (VCIP; [2]): had no effect
- induction of VCIP expression (VCIP; [3]): equally able to induce expression of VCIP
